Laboratory results as given in patent publication US9540392B2, “Thienopyrimidines” (BAYER PHARMA AKTIENGESELLSCHAFT, priority 2012, dated 2017).

The compounds below were run against T1, human full-length MKNK1 (Homo sapiens, UniProt Q9BUB5, T385D) (assay: MKNK1 kinase high ATP assay (TR-FRET)). Conditions: 2 mM ATP, after preincubation with MKNK1; read-out: MKNK1 IC50 (MKNK1 high ATP).
T1 construct: GST (N); purchased Carna Biosciences 02-145; host or cells: insect cells (baculovirus expression system)
Assay type: biochemical
Outline: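 Compound was preincubated 15 min at 22° C. with MKNK1 in 50 mM HEPES pH 7.5, 5 mM MgCl2, 1.0 mM DTT, then the reaction ran 30 min at 22° C. with 2 mM ATP and 0.06 μM biotinylated peptide (final).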

T1 sequence (Q9BUB5 1-424 isoform Q9BUB5-2 T344D): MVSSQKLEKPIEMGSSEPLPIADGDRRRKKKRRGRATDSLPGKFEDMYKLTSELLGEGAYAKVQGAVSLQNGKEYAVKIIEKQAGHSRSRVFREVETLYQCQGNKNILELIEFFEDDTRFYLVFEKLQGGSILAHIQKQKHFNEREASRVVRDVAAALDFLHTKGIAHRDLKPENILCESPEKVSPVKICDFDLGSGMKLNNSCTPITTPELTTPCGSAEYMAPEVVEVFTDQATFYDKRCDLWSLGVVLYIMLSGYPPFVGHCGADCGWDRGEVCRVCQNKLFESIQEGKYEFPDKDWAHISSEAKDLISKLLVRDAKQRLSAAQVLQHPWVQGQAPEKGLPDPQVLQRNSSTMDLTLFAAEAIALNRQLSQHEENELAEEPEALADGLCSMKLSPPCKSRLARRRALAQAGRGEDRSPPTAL

Row | Structure (SMILES) | IC50 [nM]
1 | Cn1nccc1CNC(=O)C1CCc2c(sc3ncnc(Nc4ccc5[nH]ncc5c4)c23)C1 (racemic) [Example 136, (RS)-4-(1H-indazol-5-ylamino)-N-[(1-methyl-1H-pyrazol-5-yl)methyl]-5,6,7,8-tetrahydro[1]benzothieno[2,3-d]pyrimidine-7-carboxamide] | 7.6
2 | COCCCNC(=O)C1CCc2c(sc3ncnc(Nc4ccc5[nH]ncc5c4)c23)C1 (centres unmarked) [Example 48, 4-(1H-Indazol-5-ylamino)-N-(3-methoxypropyl)-5,6,7,8-tetrahydro[1] benzothieno [2,3-d]pyrimidine-7-carboxamide] | 12
3 | CC(C)Oc1cc2[nH]ncc2cc1Nc1ncnc2sc3c(c12)CCC(C(=O)N(C)C(C)C)C3 (racemic) [Example 215, (RS)—N-Methyl-N-(propan-2-yl)-4-{[6-(propan-2-yloxy)-1H-indazol-5-yl]amino}-5,6,7,8-tetrahydro[1]benzothieno[2,3-d]pyrimidine-7-carboxamide] | 0.5
4 | CN(C)C(=O)CN(C)C(=O)C1CCc2c(sc3ncnc(Nc4ccc5[nH]ncc5c4)c23)C1 (racemic) [Example 120, (RS)-N-[2-(dimethylamino)-2-oxoethyl]-4-(1H-indazol-5-ylamino)-N-methyl-5,6,7,8-tetrahydro[1]benzothieno[2,3-d]pyrimidine-7-carboxamide] | 8.3
5 | CCN(Cc1ccncc1)C(=O)C1CCc2c(sc3ncnc(Nc4ccc5[nH]ncc5c4)c23)C1 (racemic) [Example 109, (RS)-N-ethyl-4-(1H-indazol-5-ylamino)-N-(pyridin-4-ylmethyl)-5,6,7,8-tetrahydro[1]benzothieno[2,3-d]pyrimidine-7-carboxamide] | 8
6 | O=C(C1CCc2c(sc3ncnc(Nc4ccc5[nH]ncc5c4)c23)C1)N1CCN(Cc2ccncc2)CC1 (racemic) [Example 142, (RS)-[4-(1H-indazol-5-ylamino)-5,6,7,8-tetrahydro[1]benzothieno[2,3-d]pyrimidin-7-yl][4-(pyridin-4-ylmethyl)piperazin-1-yl]methanone] | 22.4
7 | O=C(NCc1ccsc1)C1CCc2c(sc3ncnc(Nc4ccc5[nH]ncc5c4)c23)C1 (racemic) [Example 151, (RS)-4-(1H-indazol-5-ylamino)-N-(thiophen-3-ylmethyl)-5,6,7,8-tetrahydro[1]benzothieno[2,3-d]pyrimidine-7-carboxamide] | 3.2
8 | CCOc1cc2[nH]ncc2cc1Nc1ncnc2sc3c(c12)CCC(C(=O)N1CCCCC1)C3 (racemic) [Example 209, (RS)-{4-[(6-Ethoxy-1H-indazol-5-yl)amino]-5,6,7,8-tetrahydro[1]benzothieno[2,3-d]pyrimidin-7-yl}(piperidin-1-yl)methanone] | 0.7
9 | CC(C)Oc1cc2[nH]ncc2cc1Nc1ncnc2sc3c(c12)CCC(C(=O)N1CCC2(CC2)C1)C3 (racemic) [Example 261, (RS)-5-Azaspiro[2.4]hept-5-yl{4-[(6-isopropoxy-1H-indazol-5-yl)amino]-5,6,7,8-tetrahydro[1]benzothieno[2,3-d]pyrimidin-7-yl}methanone] | 2.3
10 | COc1cc2[nH]ncc2cc1Nc1ncnc2sc3c(c12)CCC(C(=O)N1C[C@@H](O)[C@H](O)C1)C3 (mixture of isomers) [Example 243, [(3R,4R)-3,4-Dihydroxypyrrolidin-1-yl]{(7RS)-4-[(6-methoxy-1H-indazol-5-yl)amino]-5,6,7,8-tetrahydro[1]benzothieno[2,3-d]pyrimidin-7-yl}methanone] | 0.3
11 | Cc1ccccc1N1CCN(C(=O)C2CCc3c(sc4ncnc(Nc5ccc6[nH]ncc6c5)c34)C2)CC1 (racemic) [Example 110, (R)S-[4-(1H-indazol-5-ylamino)-5,6,7,8-tetrahydro[1]benzothieno[2,3-d]pyrimidin-7-yl][4-(2-methylphenyl)piperazin-1-yl]methanone] | 132
12 | COc1cc2[nH]ncc2cc1Nc1ncnc2sc3c(c12)CCC(C(=O)N(C)CC1CC1)C3 (racemic) [Example 182, (RS)—N-(Cyclopropylmethyl)-4-[(6-methoxy-1H-indazol-5-yl)amino]-N-methyl-5,6,7,8-tetrahydro[1]benzothieno[2,3-d]pyrimidine-7-carboxamide] | 0.5
13 | CN(Cc1ccsc1)C(=O)C1CCc2c(sc3ncnc(Nc4ccc5[nH]ncc5c4)c23)C1 (racemic) [Example 162, (RS)-4-(1H-indazol-5-ylamino)-N-methyl-N-(thiophen-3-ylmethyl)-5,6,7,8-tetrahydro[1]benzothieno[2,3-d]pyrimidine-7-carboxamide] | 5.3
14 | COCCN(CCO)C(=O)C1CCc2c(sc3ncnc(Nc4cc5cn[nH]c5cc4OC)c23)C1 (racemic) [Example 207, (RS)—N-(2-Hydroxyethyl)-N-(2-methoxyethyl)-4-[(6-methoxy-1H-indazol-5-yl)amino]-5,6,7,8-tetrahydro[1]benzothieno[2,3-d]pyrimidine-7-carboxamide] | 0.5
15 | CC(C)NC(=O)C1CCc2c(sc3ncnc(Nc4cc5cn[nH]c5cc4F)c23)C1 (racemic) [Example 63, (RS)-4-[(6-Fluoro-1H-indazol-5-yl)amino]-N-(propan-2-yl)-5,6,7,8-tetrahydro[1]benzothieno[2,3-d]pyrimidine-7-carboxamide] | 10.2
16 | O=C(NCc1cccs1)C1CCc2c(sc3ncnc(Nc4ccc5[nH]ncc5c4)c23)C1 (racemic) [Example 90, (RS)-4-(1H-indazol-5-ylamino)-N-(thiophen-2-ylmethyl)-5,6,7,8-tetrahydro[1]benzothieno[2,3-d]pyrimidine-7-carboxamide] | 16.4
17 | CNC(=O)C1CCc2c(sc3ncnc(Nc4ccc5[nH]ncc5c4)c23)C1 (centres unmarked) [Example 11, 4-(1H-indazol-5-ylamino)-N-methyl-5,6,7,8-tetrahydro[1]benzothieno[2,3-d]pyrimidine-7-carboxamide] | 10
18 | NC(=O)C1CCc2c(sc3ncnc(Nc4ccc5[nH]ncc5c4)c23)C1 (centres unmarked) [Example 3, 4-(1H-Indazol-5-ylamino)-5,6,7,8-tetrahydro[1]benzothieno[2,3-d]pyrimidine-7-carboxamide] | 8
19 | COc1cc2[nH]ncc2cc1Nc1ncnc2sc3c(c12)CCC(C(=O)N(C)CC(F)F)C3 (racemic) [Example 170, (RS)—N-(2,2-Difluoroethyl)-4-[(6-methoxy-1H-indazol-5-yl)amino]-N-methyl-5,6,7,8-tetrahydro[1]benzothieno[2,3-d]pyrimidine-7-carboxamide] | 0.8
20 | CN(C)C(=O)C1CCc2c(sc3ncnc(Nc4cc5cn[nH]c5cc4OCCCl)c23)C1 (racemic) [Example 266, (RS)-4-{[6-(2-Chloroethoxy)-1H-indazol-5-yl]amino}-N,N-dimethyl-5,6,7,8-tetrahydro[1]benzothieno[2,3-d]pyrimidine-7-carboxamide] | 1.2
21 | CCN(CCO)C(=O)C1CCc2c(sc3ncnc(Nc4cc5cn[nH]c5cc4OC(C)C)c23)C1 (racemic) [Example 214, (RS)—N-ethyl-N-(2-hydroxyethyl)-4-{[6-(propan-2-yloxy)-1H-indazol-5-yl]amino}-5,6,7,8-tetrahydro[1]benzothieno[2,3-d]pyrimidine-7-carboxamide] | 0.3
22 | CNC(=O)CN1CCN(C(=O)C2CCc3c(sc4ncnc(Nc5ccc6[nH]ncc6c5)c34)C2)CC1 (racemic) [Example 164, (RS)-2-(4-{[4-(1H-indazol-5-ylamino)-5,6,7,8-tetrahydro[1]benzothieno[2,3-d]pyrimidin-7-yl]carbonyl}piperazin-1-yl)-N-methylacetamide] | 22.5
23 | O=C(NCc1ccc(F)cc1)C1CCc2c(sc3ncnc(Nc4ccc5[nH]ncc5c4)c23)C1 (centres unmarked) [Example 24, N-(4-Fluorobenzyl)-4-(1H-indazol-5-ylamino)-5,6,7,8-tetrahydro[1] benzothieno [2,3-d]pyrimidine-7-carboxamide] | 3
24 | CCOc1cc2[nH]ncc2cc1Nc1ncnc2sc3c(c12)CCC(C(=O)N(C)C1CC1)C3 (racemic) [Example 235, (RS)—N—Cyclopropyl-4-[(6-ethoxy-1H-indazol-5-yl)amino]-N-methyl-5,6,7,8-tetrahydro[1]benzothieno[2,3-d]pyrimidine-7-carboxamide] | 0.5
25 | CN(Cc1ccn(C)n1)C(=O)C1CCc2c(sc3ncnc(Nc4ccc5[nH]ncc5c4)c23)C1 (racemic) [Example 137, (RS)-4-(1H-indazol-5-ylamino)-N-methyl-N-[(1-methyl-1H-pyrazol-3-yl)methyl]-5,6,7,8-tetrahydro[1]benzothieno[2,3-d]pyrimidine-7-carboxamide] | 15.6
26 | COCC1CCCN1C(=O)C1CCc2c(sc3ncnc(Nc4ccc5[nH]ncc5c4)c23)C1 (racemic) [Example 204, (RS)-[4-(1H-indazol-5-ylamino)-5,6,7,8-tetrahydro[1]benzothieno[2,3-d]pyrimidin-7-yl][2-(methoxymethyl)pyrrolidin-1-yl]methanone] | 7.3
27 | CC(C)Oc1cc2[nH]ncc2cc1Nc1ncnc2sc3c(c12)CCC(C(=O)N1CCC1)C3 (racemic) [Example 219, (RS)-Azetidin-1-yl(4-{[6-(propan-2-yloxy)-1H-indazol-5-yl]amino}-5,6,7,8-tetrahydro[1]benzothieno[2,3-d]pyrimidin-7-yl)methanone] | 0.5
28 | CC1CCCN(C(=O)C2CCc3c(sc4ncnc(Nc5ccc6[nH]ncc6c5)c34)C2)C1 (racemic) [Example 104, (RS)-[4-(1H-indazol-5-ylamino)-5,6,7,8-tetrahydro[1]benzothieno[2,3-d]pyrimidin-7-yl](3-methylpiperidin-1-yl)methanone] | 7.4
29 | CCN(CCC#N)C(=O)C1CCc2c(sc3ncnc(Nc4ccc5[nH]ncc5c4)c23)C1 (racemic) [Example 190, (RS)-N-(2-cyanoethyl)-N-ethyl-4-(1H-indazol-5-ylamino)-5,6,7,8-tetrahydro[1]benzothieno[2,3-d]pyrimidine-7-carboxamide] | 6
